# Legend:
# Type in all cases: cell-based
# [1] = tested on: HCT-116 colorectal cancer cell line; assay: CCK-8 proliferation inhibition; details: Homo sapiens, HCT-116, 72 h, concentration of 30 μM; 72 hours; CCK-8; read-out: HCT116 inhibition rate/%
# Procedure, shortened: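 2000 cells/well, McCoy's 5A + 10% newborn bovine serum; overnight attach, 37° C./5% CO2. Cpd from DMSO stock diluted in medium, 72 h. Readout: CCK-8 (1:10). Ctrl 1‰ DMSO.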
# [2] = tested on: methicillin-resistant Staphylococcus aureus (MRSA); assay: MIC, two-fold agar dilution (CLSI), clinical isolates; details: for Anti-bacterial activity (MIC), strain MRSA 15-1: clinical isolate MRSA 15-1; for Anti-bacterial activity (MIC), strain MRSA 15-2: clinical isolate MRSA 15-2; for Anti-bacterial activity (MIC), strain MRSA 15-3: clinical isolate MRSA 15-3; for Anti-bacterial activity (MIC), strain MRSA 15-4: clinical isolate MRSA 15-4
# Procedure, shortened: (§1)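 Samples are serially diluted two-fold in agar following CLSI guidance. Plates are then inoculated with the tested strains. The lowest inhibiting concentration is recorded as MIC.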
# [3] = tested on: Streptococcus pneoumoniae (SPN); assay: as above; details: for Anti-bacterial activity (MIC), strain SPN 16-2: clinical isolate SPN 16-2; for Anti-bacterial activity (MIC), strain SPN 16-4: clinical isolate SPN 16-4
# Procedure, shortened: as §1
# [4] = tested on: Enterococcus faecalis (EFA); assay: as above; details: for Anti-bacterial activity (MIC), strain EFA 15-1: clinical isolate EFA 15-1; for Anti-bacterial activity (MIC), strain EFA 15-2: clinical isolate EFA 15-2; for Anti-bacterial activity (MIC), strain EFA 15-3: clinical isolate EFA 15-3; for Anti-bacterial activity (MIC), strain EFA 15-4: clinical isolate EFA 15-4; for Anti-bacterial activity (MIC), strain EFA 15-5: clinical isolate EFA 15-5; for Anti-bacterial activity (MIC), strain EFA 15-6: clinical isolate EFA 15-6; for Anti-bacterial activity (MIC), strain EFA 15-9: clinical isolate EFA 15-9
# Procedure, shortened: as §1
# [5] = tested on: methicillin-resistant Staphylococcus epidermidis (MRSE); assay: as above; details: for Anti-bacterial activity (MIC), strain MRSE 15-1: clinical isolate MRSE 15-1; for Anti-bacterial activity (MIC), strain MRSE 15-2: clinical isolate MRSE 15-2; for Anti-bacterial activity (MIC), strain MRSE 15-3: clinical isolate MRSE 15-3; for Anti-bacterial activity (MIC), strain MRSE 15-7: clinical isolate MRSE 15-7
# Procedure, shortened: as §1
# [6] = tested on: Moraxella catarrhalis (BCA); assay: as above; details: for Anti-bacterial activity (MIC), strain BCA 14-1: clinical isolate BCA 14-1; for Anti-bacterial activity (MIC), strain BCA 14-4: clinical isolate BCA 14-4; for Anti-bacterial activity (MIC), strain BCA 14-5: clinical isolate BCA 14-5; for Anti-bacterial activity (MIC), strain BCA 14-6: clinical isolate BCA 14-6; for Anti-bacterial activity (MIC), strain BCA 14-7: clinical isolate BCA 14-7; for Anti-bacterial activity (MIC), strain BCA 14-8: clinical isolate BCA 14-8; for Anti-bacterial activity (MIC), strain BCA 14-10: clinical isolate BCA 14-10
# Procedure, shortened: as §1
# [7] = tested on: methicillin-sensitive Staphylococcus aureus (MSSA); assay: as above; details: for Anti-bacterial activity (MIC), strain MSSA 15-3: clinical isolate MSSA 15-3; for Anti-bacterial activity (MIC), strain MSSA 15-4: clinical isolate MSSA 15-4; for Anti-bacterial activity (MIC), strain MSSA 15-5: clinical isolate MSSA 15-5; for Anti-bacterial activity (MIC), strain MSSA 15-6: clinical isolate MSSA 15-6
# Procedure, shortened: as §1
# [8] = tested on: Enterococcus faecium (EFM); assay: as above; details: for Anti-bacterial activity (MIC), strain EFM 15-1: clinical isolate EFM 15-1; for Anti-bacterial activity (MIC), strain EFM 15-2: clinical isolate EFM 15-2; for Anti-bacterial activity (MIC), strain EFM 15-3: clinical isolate EFM 15-3; for Anti-bacterial activity (MIC), strain EFM 15-4: clinical isolate EFM 15-4; for Anti-bacterial activity (MIC), strain EFM 15-5: clinical isolate EFM 15-5; for Anti-bacterial activity (MIC), strain EFM 15-6: clinical isolate EFM 15-6
# Procedure, shortened: as §1
# [9] = tested on: Escherichia coli (including ESBLs, non-ESBLs); assay: as above; details: for Anti-bacterial activity (MIC), strain ECO+ 15-1: clinical isolate ECO+ 15-1; for Anti-bacterial activity (MIC), strain ECO+ 15-2: clinical isolate ECO+ 15-2; for Anti-bacterial activity (MIC), strain ECO+ 15-3: clinical isolate ECO+ 15-3; for Anti-bacterial activity (MIC), strain ECO+ 15-4: clinical isolate ECO+ 15-4; for Anti-bacterial activity (MIC), strain ECO− 15-1: clinical isolate ECO− 15-1; for Anti-bacterial activity (MIC), strain ECO− 15-2: clinical isolate ECO− 15-2; for Anti-bacterial activity (MIC), strain ECO− 15-3: clinical isolate ECO− 15-3; for Anti-bacterial activity (MIC), strain ECO− 15-4: clinical isolate ECO− 15-4
# Procedure, shortened: as §1
# [10] = tested on: methicillin-sensitive Staphylococcus epidermidis (MSSE); assay: as above; details: for Anti-bacterial activity (MIC), strain MSSE 15-3: clinical isolate MSSE 15-3; for Anti-bacterial activity (MIC), strain MSSE 15-4: clinical isolate MSSE 15-4; for Anti-bacterial activity (MIC), strain MSSE 15-5: clinical isolate MSSE 15-5; for Anti-bacterial activity (MIC), strain MSSE 15-6: clinical isolate MSSE 15-6
# Procedure, shortened: as §1
smiles,measurement,setting,value
"CCCC[C@H](CC(=O)NO)C(=O)N1CC2(CC2)C[C@H]1C(=O)Nc1ncco1 [Example 53, (S)-5-((R)-2-(2-(hydroxyamino)-2-oxoethyl)hexanoyl)-N-(oxazol-2-yl)-5-azaspiro[2.4]heptane-6-carboxamide]",inhibition at 30 µM,[1],-18%
same,"Anti-bacterial activity (MIC), strain MRSA 15-1",[2],16 mg/L
same,"Anti-bacterial activity (MIC), strain MRSA 15-2",[2],> 32 mg/L
same,"Anti-bacterial activity (MIC), strain MRSA 15-3",[2],16 mg/L
same,"Anti-bacterial activity (MIC), strain MRSA 15-4",[2],> 32 mg/L
same,"Anti-bacterial activity (MIC), strain SPN 16-2",[3],32 mg/L
same,"Anti-bacterial activity (MIC), strain SPN 16-4",[3],32 mg/L
same,"Anti-bacterial activity (MIC), strain EFA 15-1",[4],> 32 mg/L
same,"Anti-bacterial activity (MIC), strain EFA 15-2",[4],> 32 mg/L
same,"Anti-bacterial activity (MIC), strain EFA 15-3",[4],> 32 mg/L
same,"Anti-bacterial activity (MIC), strain EFA 15-4",[4],> 32 mg/L
same,"Anti-bacterial activity (MIC), strain EFA 15-5",[4],> 32 mg/L
same,"Anti-bacterial activity (MIC), strain EFA 15-6",[4],> 32 mg/L
same,"Anti-bacterial activity (MIC), strain EFA 15-9",[4],> 32 mg/L
same,"Anti-bacterial activity (MIC), strain MRSE 15-1",[5],> 32 mg/L
same,"Anti-bacterial activity (MIC), strain MRSE 15-2",[5],> 32 mg/L
same,"Anti-bacterial activity (MIC), strain MRSE 15-3",[5],> 32 mg/L
same,"Anti-bacterial activity (MIC), strain MRSE 15-7",[5],> 32 mg/L
same,"Anti-bacterial activity (MIC), strain BCA 14-1",[6],> 32 mg/L
same,"Anti-bacterial activity (MIC), strain BCA 14-4",[6],> 32 mg/L
same,"Anti-bacterial activity (MIC), strain BCA 14-5",[6],> 32 mg/L
same,"Anti-bacterial activity (MIC), strain BCA 14-6",[6],> 32 mg/L
same,"Anti-bacterial activity (MIC), strain BCA 14-7",[6],> 32 mg/L
same,"Anti-bacterial activity (MIC), strain BCA 14-8",[6],> 32 mg/L
same,"Anti-bacterial activity (MIC), strain BCA 14-10",[6],> 32 mg/L
same,"Anti-bacterial activity (MIC), strain MSSA 15-3",[7],> 32 mg/L
same,"Anti-bacterial activity (MIC), strain MSSA 15-4",[7],> 32 mg/L
same,"Anti-bacterial activity (MIC), strain MSSA 15-5",[7],> 32 mg/L
same,"Anti-bacterial activity (MIC), strain MSSA 15-6",[7],> 32 mg/L
same,"Anti-bacterial activity (MIC), strain EFM 15-1",[8],> 32 mg/L
same,"Anti-bacterial activity (MIC), strain EFM 15-2",[8],> 32 mg/L
same,"Anti-bacterial activity (MIC), strain EFM 15-3",[8],> 32 mg/L
same,"Anti-bacterial activity (MIC), strain EFM 15-4",[8],> 32 mg/L
same,"Anti-bacterial activity (MIC), strain EFM 15-5",[8],32 mg/L
same,"Anti-bacterial activity (MIC), strain EFM 15-6",[8],32 mg/L
same,"Anti-bacterial activity (MIC), strain ECO+ 15-1",[9],> 32 mg/L
same,"Anti-bacterial activity (MIC), strain ECO+ 15-2",[9],> 32 mg/L
same,"Anti-bacterial activity (MIC), strain ECO+ 15-3",[9],> 32 mg/L
same,"Anti-bacterial activity (MIC), strain ECO+ 15-4",[9],> 32 mg/L
same,"Anti-bacterial activity (MIC), strain ECO− 15-1",[9],> 32 mg/L
same,"Anti-bacterial activity (MIC), strain ECO− 15-2",[9],> 32 mg/L
same,"Anti-bacterial activity (MIC), strain ECO− 15-3",[9],> 32 mg/L
same,"Anti-bacterial activity (MIC), strain ECO− 15-4",[9],> 32 mg/L
same,"Anti-bacterial activity (MIC), strain MSSE 15-3",[10],> 32 mg/L
same,"Anti-bacterial activity (MIC), strain MSSE 15-4",[10],> 32 mg/L
same,"Anti-bacterial activity (MIC), strain MSSE 15-5",[10],> 32 mg/L
same,"Anti-bacterial activity (MIC), strain MSSE 15-6",[10],> 32 mg/L
"CCCC[C@H](CC(=O)NO)C(=O)N1CC2(CC2)C[C@H]1C(=O)Nc1ccno1 [Example 54, (S)-5-((R)-2-(2-(hydroxyamino)-2-oxoethyl)hexanoyl)-N-(isoxazol-5-yl)-5-spiro[2.4]heptane-6-carboxamide]",inhibition at 30 µM,[1],8%
same,"Anti-bacterial activity (MIC), strain MRSA 15-1",[2],> 32 mg/L
same,"Anti-bacterial activity (MIC), strain MRSA 15-2",[2],> 32 mg/L
same,"Anti-bacterial activity (MIC), strain MRSA 15-3",[2],> 32 mg/L
same,"Anti-bacterial activity (MIC), strain MRSA 15-4",[2],> 32 mg/L
same,"Anti-bacterial activity (MIC), strain SPN 16-2",[3],4 mg/L
same,"Anti-bacterial activity (MIC), strain SPN 16-4",[3],4 mg/L
same,"Anti-bacterial activity (MIC), strain EFA 15-1",[4],> 32 mg/L
same,"Anti-bacterial activity (MIC), strain EFA 15-2",[4],> 32 mg/L
same,"Anti-bacterial activity (MIC), strain EFA 15-3",[4],> 32 mg/L
same,"Anti-bacterial activity (MIC), strain EFA 15-4",[4],> 32 mg/L
same,"Anti-bacterial activity (MIC), strain EFA 15-5",[4],> 32 mg/L
same,"Anti-bacterial activity (MIC), strain EFA 15-6",[4],> 32 mg/L
same,"Anti-bacterial activity (MIC), strain EFA 15-9",[4],32 mg/L
same,"Anti-bacterial activity (MIC), strain MRSE 15-1",[5],> 32 mg/L
same,"Anti-bacterial activity (MIC), strain MRSE 15-2",[5],> 32 mg/L
same,"Anti-bacterial activity (MIC), strain MRSE 15-3",[5],> 32 mg/L
same,"Anti-bacterial activity (MIC), strain MRSE 15-7",[5],> 32 mg/L
same,"Anti-bacterial activity (MIC), strain BCA 14-1",[6],> 32 mg/L
same,"Anti-bacterial activity (MIC), strain BCA 14-4",[6],> 32 mg/L
same,"Anti-bacterial activity (MIC), strain BCA 14-5",[6],32 mg/L
same,"Anti-bacterial activity (MIC), strain BCA 14-6",[6],> 32 mg/L
same,"Anti-bacterial activity (MIC), strain BCA 14-7",[6],> 32 mg/L
same,"Anti-bacterial activity (MIC), strain BCA 14-8",[6],> 32 mg/L
same,"Anti-bacterial activity (MIC), strain BCA 14-10",[6],> 32 mg/L
same,"Anti-bacterial activity (MIC), strain MSSA 15-3",[7],> 32 mg/L
same,"Anti-bacterial activity (MIC), strain MSSA 15-4",[7],> 32 mg/L
same,"Anti-bacterial activity (MIC), strain MSSA 15-5",[7],> 32 mg/L
same,"Anti-bacterial activity (MIC), strain MSSA 15-6",[7],> 32 mg/L
same,"Anti-bacterial activity (MIC), strain EFM 15-1",[8],> 32 mg/L
same,"Anti-bacterial activity (MIC), strain EFM 15-2",[8],> 32 mg/L
same,"Anti-bacterial activity (MIC), strain EFM 15-3",[8],> 32 mg/L
same,"Anti-bacterial activity (MIC), strain EFM 15-4",[8],> 32 mg/L
same,"Anti-bacterial activity (MIC), strain EFM 15-5",[8],2 mg/L
same,"Anti-bacterial activity (MIC), strain EFM 15-6",[8],8 mg/L
same,"Anti-bacterial activity (MIC), strain ECO+ 15-1",[9],> 32 mg/L
same,"Anti-bacterial activity (MIC), strain ECO+ 15-2",[9],> 32 mg/L
same,"Anti-bacterial activity (MIC), strain ECO+ 15-3",[9],> 32 mg/L
same,"Anti-bacterial activity (MIC), strain ECO+ 15-4",[9],> 32 mg/L
same,"Anti-bacterial activity (MIC), strain ECO− 15-1",[9],> 32 mg/L
same,"Anti-bacterial activity (MIC), strain ECO− 15-2",[9],> 32 mg/L
same,"Anti-bacterial activity (MIC), strain ECO− 15-3",[9],> 32 mg/L
same,"Anti-bacterial activity (MIC), strain ECO− 15-4",[9],> 32 mg/L
same,"Anti-bacterial activity (MIC), strain MSSE 15-3",[10],> 32 mg/L
same,"Anti-bacterial activity (MIC), strain MSSE 15-4",[10],> 32 mg/L
same,"Anti-bacterial activity (MIC), strain MSSE 15-5",[10],> 32 mg/L
same,"Anti-bacterial activity (MIC), strain MSSE 15-6",[10],> 32 mg/L

# — patent US10738028B2, “Spiro three-membered ring, spiro five-membered ring peptide deformylase inhibitor and use thereof in antibacteria and anti-tumor” (priority 2016, dated 2020)
